Experiment: xn = mol fraction of the nth substance listed

CCCC#N + CCCCO
viscosity [mPa·s], 101.33 kPa
Conditions | x2 = 0.1001 | x2 = 0.1981 | x2 = 0.2994 | x2 = 0.3979 | x2 = 0.4953 | x2 = 0.5961 | x2 = 0.6981 | x2 = 0.7984 | x2 = 0.8991
298.15 K | 0.58 | 0.623 | 0.684 | 0.764 | 0.869 | 1.012 | 1.211 | 1.482 | 1.885
308.15 K | 0.515 | 0.547 | 0.596 | 0.66 | 0.741 | 0.852 | 1.003 | 1.208 | 1.506
318.15 K | 0.461 | 0.487 | 0.526 | 0.575 | 0.64 | 0.726 | 0.842 | 1.002 | 1.221

Brc1ccccc1 + Cc1ccc(C)cc1
101 kPa
Conditions | viscosity [mPa·s]
293.15 K, x1 = 0.1123 | 0.645
293.15 K, x1 = 0.225 | 0.695
293.15 K, x1 = 0.3321 | 0.746
293.15 K, x1 = 0.4327 | 0.795
293.15 K, x1 = 0.5301 | 0.845
293.15 K, x1 = 0.6412 | 0.897
293.15 K, x1 = 0.7553 | 0.95
293.15 K, x1 = 0.9107 | 1.018
298.15 K, x1 = 0.1121 | 0.61
298.15 K, x1 = 0.2263 | 0.658
298.15 K, x1 = 0.3316 | 0.701
298.15 K, x1 = 0.4646 | 0.758
298.15 K, x1 = 0.5298 | 0.785
298.15 K, x1 = 0.6418 | 0.835
298.15 K, x1 = 0.755 | 0.895
298.15 K, x1 = 0.9101 | 0.955
303.15 K, x1 = 0.1154 | 0.575
303.15 K, x1 = 0.22 | 0.615
303.15 K, x1 = 0.3355 | 0.657
303.15 K, x1 = 0.4366 | 0.7
303.15 K, x1 = 0.5593 | 0.75
303.15 K, x1 = 0.6816 | 0.799
303.15 K, x1 = 0.7723 | 0.835
303.15 K, x1 = 0.9149 | 0.891

FB(F)F + COc1ccccc1
viscosity [mPa·s], 101 kPa
Conditions | 293.15 K | 298.15 K | 303.15 K
x1 = 0.00791 | 1.08 | 1 | 0.93
x1 = 0.08794 | 1.18 | 1.08 | 0.99
x1 = 0.1573 | 1.27 | 1.16 | 1.06
x1 = 0.2443 | 1.62 | 1.46 | 1.35
x1 = 0.3211 | 2.23 | 2.02 | 1.81
x1 = 0.3634 | 2.66 | 2.39 | 2.13
x1 = 0.3926 | 3.04 | 2.69 | 2.4
x1 = 0.419 | 3.46 | 3.04 | 2.67
x1 = 0.4457 | 3.95 | 3.45 | 3.04
x1 = 0.4544 | 4.19 | 3.62 | 3.15
x1 = 0.4895 | 4.98 | 4.31 | 3.73

COc1ccccc1O + CC(C)=O
303.15 K, 101 kPa
Conditions | viscosity [mPa·s]
x2 = 0.1 | 3.67
x2 = 0.2 | 2.95
x2 = 0.3 | 2.35
x2 = 0.4 | 1.82
x2 = 0.5 | 1.26
x2 = 0.6 | 1.03
x2 = 0.7 | 0.755
x2 = 0.8 | 0.573
x2 = 0.9 | 0.44

O=C1CCCO1 + CC#N
Conditions | viscosity [mPa·s]
293.15 K, 101 kPa, x2 = 0.1054 | 1.604
293.15 K, 101 kPa, x2 = 0.1934 | 1.392
293.15 K, 101 kPa, x2 = 0.3007 | 1.172
293.15 K, 101 kPa, x2 = 0.4029 | 0.998
293.15 K, 101 kPa, x2 = 0.5036 | 0.849
293.15 K, 101 kPa, x2 = 0.6012 | 0.732
293.15 K, 101 kPa, x2 = 0.702 | 0.608
293.15 K, 101 kPa, x2 = 0.8008 | 0.518
293.15 K, 101 kPa, x2 = 0.8993 | 0.433
298.15 K, 101 kPa, x2 = 0.1054 | 1.484
298.15 K, 101 kPa, x2 = 0.1934 | 1.292
298.15 K, 101 kPa, x2 = 0.3007 | 1.092
298.15 K, 101 kPa, x2 = 0.4029 | 0.934
298.15 K, 101 kPa, x2 = 0.5036 | 0.8
298.15 K, 101 kPa, x2 = 0.6012 | 0.691
298.15 K, 101 kPa, x2 = 0.702 | 0.576
298.15 K, 101 kPa, x2 = 0.8008 | 0.495
298.15 K, 101 kPa, x2 = 0.8993 | 0.414
298.15 K, 101.33 kPa, x2 = 0.0503 | 1.591
298.15 K, 101.33 kPa, x2 = 0.0938 | 1.471
298.15 K, 101.33 kPa, x2 = 0.1387 | 1.375
298.15 K, 101.33 kPa, x2 = 0.2001 | 1.253
298.15 K, 101.33 kPa, x2 = 0.249 | 1.164
298.15 K, 101.33 kPa, x2 = 0.3005 | 1.074
298.15 K, 101.33 kPa, x2 = 0.3969 | 0.925
298.15 K, 101.33 kPa, x2 = 0.4459 | 0.86
298.15 K, 101.33 kPa, x2 = 0.4998 | 0.79
298.15 K, 101.33 kPa, x2 = 0.5515 | 0.728
298.15 K, 101.33 kPa, x2 = 0.5979 | 0.676
298.15 K, 101.33 kPa, x2 = 0.7014 | 0.571
298.15 K, 101.33 kPa, x2 = 0.7522 | 0.525
298.15 K, 101.33 kPa, x2 = 0.8006 | 0.485
298.15 K, 101.33 kPa, x2 = 0.8359 | 0.456
298.15 K, 101.33 kPa, x2 = 0.8994 | 0.409
298.15 K, 101.33 kPa, x2 = 0.9532 | 0.365
303.15 K, 101 kPa, x2 = 0.1054 | 1.378
303.15 K, 101 kPa, x2 = 0.1934 | 1.204
303.15 K, 101 kPa, x2 = 0.3007 | 1.021
303.15 K, 101 kPa, x2 = 0.4029 | 0.877
303.15 K, 101 kPa, x2 = 0.5036 | 0.756
303.15 K, 101 kPa, x2 = 0.6012 | 0.655
303.15 K, 101 kPa, x2 = 0.702 | 0.547
303.15 K, 101 kPa, x2 = 0.8008 | 0.473
303.15 K, 101 kPa, x2 = 0.8993 | 0.395
308.15 K, 101 kPa, x2 = 0.1054 | 1.284
308.15 K, 101 kPa, x2 = 0.1934 | 1.126
308.15 K, 101 kPa, x2 = 0.3007 | 0.958
308.15 K, 101 kPa, x2 = 0.4029 | 0.827
308.15 K, 101 kPa, x2 = 0.5036 | 0.716
308.15 K, 101 kPa, x2 = 0.6012 | 0.621
308.15 K, 101 kPa, x2 = 0.702 | 0.52
308.15 K, 101 kPa, x2 = 0.8008 | 0.452
308.15 K, 101 kPa, x2 = 0.8993 | 0.378
313.15 K, 101 kPa, x2 = 0.1054 | 1.201
313.15 K, 101 kPa, x2 = 0.1934 | 1.055
313.15 K, 101 kPa, x2 = 0.3007 | 0.902
313.15 K, 101 kPa, x2 = 0.4029 | 0.781
313.15 K, 101 kPa, x2 = 0.5036 | 0.68
313.15 K, 101 kPa, x2 = 0.6012 | 0.591
313.15 K, 101 kPa, x2 = 0.702 | 0.496
313.15 K, 101 kPa, x2 = 0.8008 | 0.431
313.15 K, 101 kPa, x2 = 0.8993 | 0.363
318.15 K, 101 kPa, x2 = 0.1054 | 1.125
318.15 K, 101 kPa, x2 = 0.1934 | 0.991
318.15 K, 101 kPa, x2 = 0.3007 | 0.85
318.15 K, 101 kPa, x2 = 0.4029 | 0.74
318.15 K, 101 kPa, x2 = 0.5036 | 0.647
318.15 K, 101 kPa, x2 = 0.6012 | 0.563
318.15 K, 101 kPa, x2 = 0.702 | 0.473
318.15 K, 101 kPa, x2 = 0.8008 | 0.413
318.15 K, 101 kPa, x2 = 0.8993 | 0.344
323.15 K, 101 kPa, x2 = 0.1054 | 1.058
323.15 K, 101 kPa, x2 = 0.1934 | 0.934
323.15 K, 101 kPa, x2 = 0.3007 | 0.803
323.15 K, 101 kPa, x2 = 0.4029 | 0.702
323.15 K, 101 kPa, x2 = 0.5036 | 0.617
323.15 K, 101 kPa, x2 = 0.6012 | 0.538
323.15 K, 101 kPa, x2 = 0.702 | 0.452
323.15 K, 101 kPa, x2 = 0.8008 | 0.396
323.15 K, 101 kPa, x2 = 0.8993 | 0.33

C1COCCO1 + CCCCCCC
viscosity [mPa·s], 101 kPa
Conditions | x1 = 0.1112 | x1 = 0.225 | x1 = 0.3223 | x1 = 0.4312 | x1 = 0.5017 | x1 = 0.6114 | x1 = 0.7213 | x1 = 0.8211 | x1 = 0.9112
308.15 K | 0.363 | 0.396 | 0.422 | 0.471 | 0.505 | 0.572 | 0.658 | 0.76 | 0.875
313.15 K | 0.354 | 0.381 | 0.409 | 0.446 | 0.475 | 0.535 | 0.618 | 0.713 | 0.814
318.15 K | 0.336 | 0.362 | 0.387 | 0.421 | 0.449 | 0.504 | 0.579 | 0.666 | 0.764

From the CheMixHub viscosity set
